Assay [1] addresses Naa40 (Homo sapiens, UniProt Q86UY6). The assay is described as follows: Nt-acetylation inhibitor assay (DTNB), Naa40. It is filed as biochemical. To be noted: calculated from IC50 with Cheng-Prusoff equation. On the procedure:
(§1) The IC50 values for these compounds were tested as described in Foyn H, et al. (2013) “Design, Synthesis, and Kinetic Characterization of Protein N-Terminal Acetyltransferase Inhibitors”. ACS Chem Biol 8:1121-1127; and Foyn H, et al. (2017) “DTNB-Based quantification of in vitro enzymatic N-terminal acetyltransferase activity”, Methods Mol. Biol. 1574:9-15. Briefly, a colorimetric acetylation assay, 5,5′-dithiobis-(2-nitrobenzoic acid) (DTNB) assay was used to measure the catalytic activity of NATs after incubation with NAT inhibitors. […] Therefore, NTB- was quantified by measuring the absorbance at 412 nm and indirectly measures peptide Nt-acetylation. […] In order to measure CoA production, 2 mM DTNB (dissolved in 100 mM sodium phosphate dibasic pH 6.8 and 10 mM EDTA) was added to the quenched reaction and the absorbance at 412 nm was measured with a spectrophotometer (Epoc). Background absorbance (determined in negative controls) was subtracted from the absorbance determined in each individual reaction. Thiophenolate production was quantified assuming ε=13.7×103 M−1 cm−1. […] A similar Nt-acetylation reaction was performed as previously described and the enzymatic activity was quenched with a final concentration of 1% TFA and analyzed by HPLC (Evjenth R, Van Damme P, Gevaert K, Arnesen T (2013) HPLC-based Quantification of in vitro N-terminal Acetylation. Methods Mol Biol 981:95-102.). […]

The target in assay [2] is Naa60 (Homo sapiens, UniProt Q9H7X0). The assay is described as follows: Nt-acetylation inhibitor assay (DTNB), Naa60. It is filed as biochemical. Conditions: calculated from IC50 with Cheng-Prusoff equation. How it is done: as §1
Sequence of Naa60 (Q9H7X0 whole entry, looked up): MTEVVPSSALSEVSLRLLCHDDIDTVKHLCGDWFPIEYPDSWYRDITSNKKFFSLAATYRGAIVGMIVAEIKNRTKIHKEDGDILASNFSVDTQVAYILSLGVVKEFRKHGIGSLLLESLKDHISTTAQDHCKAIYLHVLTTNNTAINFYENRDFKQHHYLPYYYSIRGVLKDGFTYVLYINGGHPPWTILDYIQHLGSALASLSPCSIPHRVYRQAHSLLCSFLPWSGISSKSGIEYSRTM
In assay [3] the target is T1, NatA (Homo sapiens, UniProt P41227).
T1 construct: endogenous in cells
T1 sequence (P41227 1-235): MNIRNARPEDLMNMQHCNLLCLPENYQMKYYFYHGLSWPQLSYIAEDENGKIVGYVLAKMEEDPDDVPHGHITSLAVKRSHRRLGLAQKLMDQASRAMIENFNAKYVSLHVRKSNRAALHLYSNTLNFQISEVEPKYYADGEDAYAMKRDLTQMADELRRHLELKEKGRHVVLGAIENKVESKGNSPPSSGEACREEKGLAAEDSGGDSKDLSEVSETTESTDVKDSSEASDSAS
T1 sequence (Q9BXJ9 1-866 partner): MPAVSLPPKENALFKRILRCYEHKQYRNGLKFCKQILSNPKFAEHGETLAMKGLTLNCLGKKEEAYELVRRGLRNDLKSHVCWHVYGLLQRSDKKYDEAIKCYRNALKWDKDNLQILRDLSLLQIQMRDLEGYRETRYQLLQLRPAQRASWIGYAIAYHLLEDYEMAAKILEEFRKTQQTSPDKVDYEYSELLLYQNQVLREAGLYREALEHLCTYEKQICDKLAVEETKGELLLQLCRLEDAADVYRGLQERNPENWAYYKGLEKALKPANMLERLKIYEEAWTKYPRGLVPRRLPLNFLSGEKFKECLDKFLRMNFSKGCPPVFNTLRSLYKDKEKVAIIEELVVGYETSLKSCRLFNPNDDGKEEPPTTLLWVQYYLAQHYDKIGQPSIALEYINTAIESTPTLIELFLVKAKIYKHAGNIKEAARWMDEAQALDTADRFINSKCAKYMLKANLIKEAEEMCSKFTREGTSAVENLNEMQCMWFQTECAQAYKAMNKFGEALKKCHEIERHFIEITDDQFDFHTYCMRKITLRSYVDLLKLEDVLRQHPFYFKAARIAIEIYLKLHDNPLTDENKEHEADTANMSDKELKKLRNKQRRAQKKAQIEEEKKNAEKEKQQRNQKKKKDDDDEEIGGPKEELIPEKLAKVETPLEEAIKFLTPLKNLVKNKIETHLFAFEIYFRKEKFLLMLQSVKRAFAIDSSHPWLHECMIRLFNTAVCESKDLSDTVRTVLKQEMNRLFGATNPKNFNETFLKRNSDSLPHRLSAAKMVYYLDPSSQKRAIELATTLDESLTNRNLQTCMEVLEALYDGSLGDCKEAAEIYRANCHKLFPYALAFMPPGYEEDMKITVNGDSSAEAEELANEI
The assay is described as follows: Nt-acetylation inhibitor assay, immunoprecipitated NatA complex, HPLC quantification. It is filed as biochemical. How it is done:
The IC50 values for these compounds were tested as described in Foyn H, et al. (2013) “Design, Synthesis, and Kinetic Characterization of Protein N-Terminal Acetyltransferase Inhibitors”. ACS Chem Biol 8:1121-1127; and Foyn H, et al. (2017) “DTNB-Based quantification of in vitro enzymatic N-terminal acetyltransferase activity”, Methods Mol. Biol. 1574:9-15. Briefly, a colorimetric acetylation assay, 5,5′-dithiobis-(2-nitrobenzoic acid) (DTNB) assay was used to measure the catalytic activity of NATs after incubation with NAT inhibitors. In the DTNB assay, thiols present in the enzymatic product, CoA, cleaves DTNB and produces 2-nitro-5-thiobenzoate (NTB-), which absorbs light with a wavelength of 412 nm. NTB- forms in a 1:1 molar ratio to the thiol groups present in the sample. Therefore, NTB- was quantified by measuring the absorbance at 412 nm and indirectly measures peptide Nt-acetylation. Recombinant purified NAT enzyme was mixed with different substrate peptides (300 uM, custom-made) and Ac-CoA (300 uM) in acetylation buffer (50 mM Tris/HEPES pH 8.5-7.4, 100 mM NaCl, 10% glycerol and 0.2 mM EDTA) and with inhibitor concentration (0-500 uM). After 30 min-60 min incubation at 37° C., the enzyme activity was quenched with quenching buffer (3.2 M guanidinium-HCl, 100 mM sodium phosphate dibasic pH 6.8). Triplicates were run for all positive samples, while negative controls were duplicated. As a negative control, reactions without enzyme were incubated at 37° C. before the reaction was quenched and added enzyme. In order to measure CoA production, 2 mM DTNB (dissolved in 100 mM sodium phosphate dibasic pH 6.8 and 10 mM EDTA) was added to the quenched reaction and the absorbance at 412 nm was measured with a spectrophotometer (Epoc). Background absorbance (determined in negative controls) was subtracted from the absorbance determined in each individual reaction. Thiophenolate production was quantified assuming ε=13.7×103 M−1 cm−1. […] A similar Nt-acetylation reaction was performed as previously described and the enzymatic activity was quenched with a final concentration of 1% TFA and analyzed by HPLC (Evjenth R, Van Damme P, Gevaert K, Arnesen T (2013) HPLC-based Quantification of in vitro N-terminal Acetylation. Methods Mol Biol 981:95-102.).
In order to ensure selectivity towards NatA, the CoA-Ac-SSNIeP (SEQ ID NO: 4) was tested against other NATs. Using the Cheng-Prusoff equation for competitive inhibitors, the dissociation constant, Ki, was calculated from IC50 values and [S]/Km ratios for all the NATs.

For assay [4], the target named is T2, Naa30 (Homo sapiens, UniProt Q147X3).
T2 sequence (Q147X3 1-362): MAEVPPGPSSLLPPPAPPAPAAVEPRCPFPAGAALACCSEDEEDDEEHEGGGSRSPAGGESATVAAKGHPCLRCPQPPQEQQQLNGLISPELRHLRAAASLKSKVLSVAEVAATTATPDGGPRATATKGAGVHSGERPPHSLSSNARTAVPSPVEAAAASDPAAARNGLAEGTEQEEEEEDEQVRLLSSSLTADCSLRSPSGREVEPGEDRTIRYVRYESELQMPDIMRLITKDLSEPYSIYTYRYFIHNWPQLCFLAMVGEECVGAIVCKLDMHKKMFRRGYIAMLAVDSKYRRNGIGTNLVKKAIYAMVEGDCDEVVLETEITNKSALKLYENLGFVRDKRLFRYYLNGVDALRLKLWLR
The assay is described as follows: Nt-acetylation inhibitor assay (DTNB), Naa30. To be noted: calculated from IC50 with Cheng-Prusoff equation. It is filed as biochemical. How it is done:
as §1

For assay [5], the target named is NatB (Homo sapiens, UniProt P61599). The assay is described as follows: Nt-acetylation inhibitor assay, immunoprecipitated NatB complex, HPLC quantification. It is filed as biochemical. Also on record: endogenous in cells. To be noted: calculated from IC50 with Cheng-Prusoff equation. On the procedure: as §1
Sequence of NatB (P61599 whole entry): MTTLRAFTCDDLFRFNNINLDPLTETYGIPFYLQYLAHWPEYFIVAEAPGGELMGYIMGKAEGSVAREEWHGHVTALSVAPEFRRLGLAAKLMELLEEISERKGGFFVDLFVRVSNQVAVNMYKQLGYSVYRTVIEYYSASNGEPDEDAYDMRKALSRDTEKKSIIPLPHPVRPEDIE
Sequence of NatB (Q14CX7 whole entry partner): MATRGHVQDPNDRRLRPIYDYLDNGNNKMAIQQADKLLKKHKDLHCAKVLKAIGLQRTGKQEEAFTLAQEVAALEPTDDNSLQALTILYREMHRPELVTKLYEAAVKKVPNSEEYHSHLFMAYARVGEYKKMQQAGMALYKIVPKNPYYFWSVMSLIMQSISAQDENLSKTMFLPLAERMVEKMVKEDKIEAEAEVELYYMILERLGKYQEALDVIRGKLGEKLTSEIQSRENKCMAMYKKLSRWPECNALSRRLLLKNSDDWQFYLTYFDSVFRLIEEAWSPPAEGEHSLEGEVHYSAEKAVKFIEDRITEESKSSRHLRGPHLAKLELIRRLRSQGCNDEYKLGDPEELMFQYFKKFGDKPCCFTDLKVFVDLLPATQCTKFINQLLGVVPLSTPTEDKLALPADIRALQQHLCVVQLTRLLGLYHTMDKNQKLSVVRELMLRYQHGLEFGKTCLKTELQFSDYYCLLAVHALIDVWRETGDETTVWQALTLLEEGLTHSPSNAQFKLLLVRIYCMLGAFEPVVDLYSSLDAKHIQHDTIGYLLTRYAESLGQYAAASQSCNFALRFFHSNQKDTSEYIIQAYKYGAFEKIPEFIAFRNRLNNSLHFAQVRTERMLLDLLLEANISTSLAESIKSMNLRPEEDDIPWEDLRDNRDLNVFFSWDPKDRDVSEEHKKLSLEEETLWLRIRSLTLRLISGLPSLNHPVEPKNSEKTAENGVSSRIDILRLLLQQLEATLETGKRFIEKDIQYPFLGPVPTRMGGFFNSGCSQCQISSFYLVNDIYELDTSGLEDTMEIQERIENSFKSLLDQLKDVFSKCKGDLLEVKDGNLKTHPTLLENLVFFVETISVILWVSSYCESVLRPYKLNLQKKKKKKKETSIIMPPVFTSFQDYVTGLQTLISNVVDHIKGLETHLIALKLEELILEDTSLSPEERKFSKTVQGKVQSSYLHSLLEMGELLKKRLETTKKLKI
The target of assay [6] is T3, Naa50 (Homo sapiens, UniProt Q9GZZ1).
T3 sequence (Q9GZZ1 1-169): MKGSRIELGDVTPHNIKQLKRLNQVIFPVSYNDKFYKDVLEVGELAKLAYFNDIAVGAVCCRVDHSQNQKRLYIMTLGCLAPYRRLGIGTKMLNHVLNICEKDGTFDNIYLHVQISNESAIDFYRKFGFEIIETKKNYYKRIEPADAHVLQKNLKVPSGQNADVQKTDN
The assay is described as follows: Nt-acetylation inhibitor assay (DTNB), Naa50. It is filed as biochemical. To be noted: calculated from IC50 with Cheng-Prusoff equation. On the procedure:
as §1

In assay [7] the test system is zebrafish embryos. The assay is described as follows: Phenotype after injection into zebrafish embryos. Conditions: injected into zebrafish embryos; compared with reference inhibitor. It is filed as in vivo. The source says:
A norleucine (Nle) residue was therefore tried in place of methionine in order to try to circumvent the synthesis problem.

Assay [8] deals with T4, Naa10 (Homo sapiens, UniProt P41227).
T4 sequence (P41227 1-235): T1 sequence (P41227 1-235)
As to the kind of experiment: Nt-acetylation inhibitor assay (DTNB), Naa10. It is filed as biochemical. Conditions: Naa10; calculated from IC50 with Cheng-Prusoff equation. On the procedure: as §1

The values below come from US20200323888A1, “INHIBITORS” (VESTLANDETS INNOVASJONSSELSKAP AS, priority 2017, published 2020).

The term Ki denotes a dissociation constant, usually derived from enzyme kinetics or from competition with a known ligand. Usually IC50 stands for the midpoint of a concentration-inhibition curve. The low end stands for greater potency in that assay, the high end for weaker potency in that assay.

Regarding `CCCC[C@H](NC(=O)[C@H](CO)NC(=O)[C@H](CO)NC(=O)CSCCNC(=O)CCNC(=O)C(O)C(C)(C)COP(=O)(O)OP(=O)(O)OCC1OC(n2cnc3c(N)ncnc32)C(O)C1OP(=O)(O)O)C(=O)N1CCC[C@H]1C(N)=O` (stereo partly shown) [CoA-Ac-SS(Nle)P], the Ki in assay [1] is 41.9 ± 6.4 µM; in assay [2] it was 3.1 ± 0.8 µM; in assay [3] (NatA, calculated from IC50 with Cheng-Prusoff equation), 0.143 ± 0.03 µM; in assay [4] it was 132 µM; in assay [5], 41.6 ± 51.2 µM; in assay [6], 17.7 ± 7.4 µM. Also, the Ki in assay [8] is 98.9 µM. Besides, inhibition in assay [3] (inhibitors tested against NatA, all compounds with C-terminal amide) was half-maximal at 1.46 ± 0.29 µM (IC50). The “more potent towards NatA than all the other NATs tested” value in assay [3] (selectivity from Ki values of Table 2) is “at least 100 fold”. Moreover, in assay [7], the phenotype in zebrafish result was “same phenotype in zebrafish as SSMP”.
